This passage reports Ki and EC50 results from patent US12252524B2, “GIP/GLP1 co-agonist compounds” (Eli Lilly and Company, priority 2018, dated 2025).

The target in one assay is T1, human Gcg receptor (Homo sapiens, UniProt P47871).
T1 construct: expressed in transfected cells; crude membranes
Kind of assay: [125I]-Glucagon binding (SPA), human Gcg receptor. The following applies: read-out: hGLcgR Ki, nM (SEM, n). The gist of the method: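 Cell pellets were lysed in hypotonic Tris buffer, pH 7.5, homogenized, and spun at low then high speed to give crude membranes. Ki was derived from the fitted IC50.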

Another assay addresses T2, human GIP receptor (Homo sapiens, UniProt P48546).
T2 construct: expressed in transfected cells; crude membranes
T2 sequence (P48546 22-466): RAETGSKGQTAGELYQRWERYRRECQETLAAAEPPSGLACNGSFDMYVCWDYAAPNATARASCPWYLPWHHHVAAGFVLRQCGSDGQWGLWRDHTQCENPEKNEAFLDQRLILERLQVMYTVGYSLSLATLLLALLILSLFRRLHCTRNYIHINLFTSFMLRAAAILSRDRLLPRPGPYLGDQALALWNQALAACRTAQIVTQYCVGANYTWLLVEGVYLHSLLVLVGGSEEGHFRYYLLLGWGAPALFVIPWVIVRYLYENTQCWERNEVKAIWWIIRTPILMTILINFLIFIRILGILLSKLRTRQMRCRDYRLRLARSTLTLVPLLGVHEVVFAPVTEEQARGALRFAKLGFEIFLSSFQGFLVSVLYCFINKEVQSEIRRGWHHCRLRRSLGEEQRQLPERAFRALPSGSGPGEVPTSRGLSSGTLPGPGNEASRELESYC
Kind of assay: [125I]-GIP binding (SPA), human GIP receptor. Conditions: read-out: hGIPR Ki, nM (SEM, n).

The target of assay [1] is human GLP-1 receptor (GLP-1R) (Homo sapiens, UniProt P43220). Kind of assay: cAMP pharmacological functional assay in presence of casein, hGLP-1R. In kind it is cell-based. Conditions: HEK293 cells expressing hGLP-1R, 0.1% Casein, geometric mean; read-out: hGLP1R cAMP Rel EC50 nM (SEM, n).
Assay [2] concerns the target T3, gastric inhibitory peptide receptor (GIPR) (Homo sapiens, UniProt P48546).
T3 sequence (P48546 22-466): T2 sequence (P48546 22-466)
The experiment in a line: cAMP pharmacological functional assay in presence of casein, hGIPR. In kind it is cell-based. Conditions: HEK293 cells expressing hGIPR, 0.1% Casein, geometric mean; read-out: hGIPR cAMP Rel EC50 nM (SEM, n).

The next assay has as its target human GLP-1R (Homo sapiens, UniProt P43220). Kind of assay: [125I]-GLP-1 binding (SPA), human GLP-1 receptor. Further details: expressed in transfected cells; crude membranes. Conditions: read-out: hGLP1R Ki, (nM) (SEM, n). In short, it runs like this:
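Membranes: hypotonic lysis (50 mM Tris HCl, pH 7.5, protease inhibitors), Potter-Elvehjem homogenization, high-speed pellet (35000×g 1 h or 25000×g 30 min, 4° C.). Buffer: 25 mM HEPES pH 7.4, 2.5 mM CaCl2, 1 mM MgCl2. Four-parameter IC50 fit; Ki as geometric mean ± SEM.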

Numbered stars: 1 amine (or outer) side, 2 acyl side, 3 side chain; on linkers, the order of the positions; unused ones are H or OH. Square brackets hold non-standard residues; d marks the D form. Side chains are listed from the residue outwards. Peptide text beside a SMILES is read from it. * marks the point of attachment. C20 diacid = O=C(O)CCCCCCCCCCCCCCCCCCC(=O)*; C18 diacid = O=C(O)CCCCCCCCCCCCCCCCC(=O)*; αMePhe(2-F) = C[C@](N)(Cc1ccccc1F)C(=O)O; γGlu = O=C(O)[C@H](CCC(=O)[*:2])N[*:1]; αMeF = C[C@](N)(Cc1ccccc1)C(=O)O; αMeL = CC(C)C[C@](C)(N)C(=O)O; AEEA = NCCOCCOCC(=O)O; Aib = CC(C)(N)C(=O)O

T1 sequence (P47871 26-477): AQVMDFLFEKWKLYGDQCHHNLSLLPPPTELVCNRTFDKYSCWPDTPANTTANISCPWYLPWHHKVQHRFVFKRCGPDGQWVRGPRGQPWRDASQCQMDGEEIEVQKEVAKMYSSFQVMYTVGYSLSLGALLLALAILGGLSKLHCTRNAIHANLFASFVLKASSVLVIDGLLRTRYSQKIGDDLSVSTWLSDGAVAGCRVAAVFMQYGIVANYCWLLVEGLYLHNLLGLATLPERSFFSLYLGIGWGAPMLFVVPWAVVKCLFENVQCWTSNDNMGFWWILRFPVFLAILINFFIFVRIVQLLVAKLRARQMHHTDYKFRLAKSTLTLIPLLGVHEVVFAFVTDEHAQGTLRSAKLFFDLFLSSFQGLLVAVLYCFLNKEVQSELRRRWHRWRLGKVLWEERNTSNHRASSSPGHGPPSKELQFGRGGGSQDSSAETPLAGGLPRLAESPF
Chain of human GLP-1 receptor (GLP-1R) (P43220 24-463): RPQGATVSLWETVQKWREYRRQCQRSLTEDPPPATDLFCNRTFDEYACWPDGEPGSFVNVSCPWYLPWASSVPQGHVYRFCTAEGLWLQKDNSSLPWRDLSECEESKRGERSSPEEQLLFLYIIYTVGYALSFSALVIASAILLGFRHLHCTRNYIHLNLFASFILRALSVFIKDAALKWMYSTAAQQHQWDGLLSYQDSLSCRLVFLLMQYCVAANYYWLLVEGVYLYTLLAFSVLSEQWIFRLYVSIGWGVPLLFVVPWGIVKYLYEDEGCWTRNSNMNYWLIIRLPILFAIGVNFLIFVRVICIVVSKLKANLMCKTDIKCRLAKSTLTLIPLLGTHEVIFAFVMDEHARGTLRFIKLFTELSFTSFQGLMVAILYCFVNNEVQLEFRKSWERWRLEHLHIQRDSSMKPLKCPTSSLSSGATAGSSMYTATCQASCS
Chain of human GLP-1R (P43220 24-463): as above

On to `CC[C@H](C)[C@H](NC(=O)[C@H](CC(C)C)NC(=O)[C@H](Cc1ccc(O)cc1)NC(=O)[C@H](CCC(=O)O)NC(=O)[C@@H](NC(=O)[C@H](Cc1ccccc1)NC(=O)[C@H](CCC(=O)O)NC(=O)C(C)(C)NC(=O)[C@H](CCC(N)=O)NC(=O)[C@H](C)NC(=O)[C@H](CCCCNC(=O)COCCOCCNC(=O)COCCOCCNC(=O)CC[C@H](NC(=O)CCCCCCCCCCCCCCCCC(=O)O)C(=O)O)NC(=O)[C@H](CCCCN)NC(=O)[C@H](CC(=O)O)NC(=O)[C@H](CC(C)C)NC(=O)[C@H](CC(C)C)NC(=O)[C@@H](NC(=O)[C@H](CO)NC(=O)[C@H](Cc1ccc(O)cc1)NC(=O)[C@H](CC(=O)O)NC(=O)[C@H](CO)NC(=O)[C@@H](NC(=O)[C@](C)(Cc1ccccc1)NC(=O)[C@@H](NC(=O)CNC(=O)[C@H](CCC(=O)O)NC(=O)C(C)(C)NC(=O)[C@@H](N)Cc1ccc(O)cc1)[C@@H](C)O)[C@@H](C)O)[C@@H](C)CC)[C@@H](C)CC)C(=O)N[C@@H](C)C(=O)NCC(=O)NCC(=O)N1CCC[C@H]1C(=O)N[C@@H](CO)C(=O)N[C@@H](CO)C(=O)NCC(N)=O` [Example 310] (H-Y[Aib]EGT[αMeF]TSDYSILLDKK([AEEA-AEEA-γGlu-C18 diacid])AQ[Aib]EFIEYLIAGGPSSG-NH2; N-terminus assumed), for which the Ki at human Gcg receptor is 174 nM; on human GIP receptor it was 0.0315 nM; on human GLP-1R, 1.7 nM. Besides, the figures for the EC50 in assay [1] and in assay [2] were 0.0283 nM and 0.0176 nM, respectively.
The like results for `CC[C@@H](C)[C@@H](NC(=O)[C@H](CO)NC(=O)[C@H](Cc1ccc(O)cc1)NC(=O)[C@H](CC(=O)O)NC(=O)[C@H](CO)NC(=O)[C@@H](NC(=O)[C@H](Cc1ccccc1)NC(=O)[C@@H](NC(=O)CNC(=O)[C@H](CCC(=O)O)NC(=O)C(C)(C)NC(=O)[C@@H](N)Cc1ccc(O)cc1)[C@@H](C)O)[C@@H](C)O)C(=O)N[C@@H](CC(C)C)C(=O)N[C@@H](CC(C)C)C(=O)N[C@@H](CC(=O)O)C(=O)N[C@@H](CCCCN)C(=O)N[C@@H](CCCCNC(=O)COCCOCCNC(=O)COCCOCCNC(=O)CC[C@H](NC(=O)CCCCCCCCCCCCCCCCCCC(=O)O)C(=O)O)C(=O)N[C@@H](C)C(=O)N[C@@H](CCC(N)=O)C(=O)NC(C)(C)C(=O)N[C@@H](C)C(=O)N[C@@H](Cc1ccccc1)C(=O)N[C@H](C(=O)N[C@@H](CCC(=O)O)C(=O)N[C@@H](Cc1ccc(O)cc1)C(=O)N[C@@H](CC(C)C)C(=O)N[C@H](C(=O)N[C@@H](CCC(=O)O)C(=O)NCC(=O)NCC(=O)N1CCC[C@H]1C(=O)N[C@@H](CO)C(=O)N[C@@H](CO)C(=O)NCC(=O)N[C@@H](C)C(=O)N1CCC[C@H]1C(=O)N1CCC[C@H]1C(=O)N1CCC[C@H]1C(=O)N[C@@H](CO)C(N)=O)[C@@H](C)CC)[C@@H](C)CC` [Example 82] were, in that order, more than 1060 nM, 14.9 nM, 6.82 nM, 26.1 nM and 24.3 nM.
Turning to `CC[C@H](C)[C@H](NC(=O)[C@H](CC(C)C)NC(=O)[C@H](Cc1ccc(O)cc1)NC(=O)[C@H](CCC(=O)O)NC(=O)[C@@H](NC(=O)[C@H](Cc1ccccc1)NC(=O)[C@H](C)NC(=O)[C@H](Cc1c[nH]cn1)NC(=O)[C@H](CCC(N)=O)NC(=O)[C@H](C)NC(=O)[C@H](CCCCNC(=O)COCCOCCNC(=O)COCCOCCNC(=O)CC[C@H](NC(=O)CCCCCCCCCCCCCCCCCCC(=O)O)C(=O)O)NC(=O)[C@H](CCC(=O)O)NC(=O)[C@H](CC(=O)O)NC(=O)[C@H](CC(C)C)NC(=O)[C@](C)(CC(C)C)NC(=O)[C@@H](NC(=O)[C@H](CO)NC(=O)[C@H](Cc1ccc(O)cc1)NC(=O)[C@H](CC(=O)O)NC(=O)[C@H](CO)NC(=O)[C@@H](NC(=O)[C@H](Cc1ccccc1)NC(=O)[C@@H](NC(=O)CNC(=O)[C@H](CCC(=O)O)NC(=O)C(C)(C)NC(=O)[C@@H](N)Cc1c[nH]cn1)[C@@H](C)O)[C@@H](C)O)[C@@H](C)CC)[C@@H](C)CC)C(=O)N[C@@H](CCC(=O)O)C(=O)NCC(=O)NCC(=O)N1CCC[C@H]1C(=O)N[C@@H](CO)C(=O)N[C@@H](CO)C(=O)NCC(=O)N[C@@H](C)C(=O)N1CCC[C@H]1C(=O)N1CCC[C@H]1C(=O)N1CCC[C@H]1C(=O)N[C@@H](CO)C(N)=O` [Example 55] (H-H[Aib]EGTFTSDYSI[αMeL]LDEK([AEEA-AEEA-γGlu-C20 diacid])AQHAFIEYLIEGGPSSGAPPPS-NH2), the inhibitory constant (Ki) is more than 1100 nM at human Gcg receptor, 6.24 nM at human GIP receptor and 7.29 nM at human GLP-1R. For the same molecule, the EC50 in assay [1] was 0.0286 nM; in assay [2] it was 5.45 nM.
For the molecule `CC[C@H](C)[C@H](NC(=O)[C@H](CC(C)C)NC(=O)[C@H](Cc1ccc(O)cc1)NC(=O)[C@H](CCC(=O)O)NC(=O)[C@@H](NC(=O)[C@H](Cc1ccccc1)NC(=O)[C@H](C)NC(=O)C(C)(C)NC(=O)[C@H](CCC(N)=O)NC(=O)[C@H](C)NC(=O)[C@H](CCCCNC(=O)COCCOCCNC(=O)COCCOCCNC(=O)CC[C@H](NC(=O)CCCCCCCCCCCCCCCCCCC(=O)O)C(=O)O)NC(=O)[C@H](CCCCN)NC(=O)[C@H](CC(=O)O)NC(=O)[C@H](CC(C)C)NC(=O)[C@H](CC(C)C)NC(=O)[C@@H](NC(=O)[C@](C)(CO)NC(=O)[C@H](Cc1ccc(O)cc1)NC(=O)[C@H](CC(=O)O)NC(=O)[C@H](CO)NC(=O)[C@@H](NC(=O)[C@H](Cc1ccccc1)NC(=O)[C@@H](NC(=O)CNC(=O)[C@H](CCC(=O)O)NC(=O)C(C)(C)NC(=O)[C@@H](N)Cc1ccc(O)cc1)[C@@H](C)O)[C@@H](C)O)[C@@H](C)CC)[C@@H](C)CC)C(=O)N[C@@H](CCC(=O)O)C(=O)NCC(=O)NCC(=O)N1CCC[C@H]1C(=O)N[C@@H](CO)C(=O)N[C@@H](CO)C(=O)NCC(=O)N[C@@H](C)C(=O)N1CCC[C@H]1C(=O)N1CCC[C@H]1C(=O)N1CCC[C@H]1C(=O)N[C@@H](CO)C(N)=O` [Example 68], the Ki was found to be 99.2 nM at human Gcg receptor, 0.0243 nM on human GIP receptor and 1.58 nM at human GLP-1R. Also, the EC50 in assay [1] worked out at 0.153 nM; in assay [2], 0.0881 nM.
In the case of `CC[C@H](C)[C@H](NC(=O)[C@H](CC(C)C)NC(=O)[C@H](Cc1ccc(O)cc1)NC(=O)[C@@H](CCC(=O)O)NC(=O)[C@@H](NC(=O)[C@H](Cc1ccccc1)NC(=O)[C@@H](NC(=O)C(C)(C)NC(=O)[C@H](CCC(N)=O)NC(=O)[C@H](C)NC(=O)[C@H](CCCCNC(=O)COCCOCCNC(=O)COCCOCCNC(=O)CC[C@H](NC(=O)CCCCCCCCCCCCCCCCCCC(=O)O)C(=O)O)NC(=O)[C@H](CCC(=O)O)NC(=O)[C@H](CC(=O)O)NC(=O)[C@H](CC(C)C)NC(=O)[C@](C)(CC(C)C)NC(=O)[C@@H](NC(=O)[C@H](CO)NC(=O)C(C)(C)NC(=O)[C@H](CC(=O)O)NC(=O)[C@H](CO)NC(=O)[C@@H](NC(=O)[C@](C)(Cc1ccccc1F)NC(=O)[C@@H](NC(=O)CNC(=O)[C@H](CCC(=O)O)NC(=O)C(C)(C)NC(=O)[C@@H](N)Cc1ccc(O)cc1)[C@@H](C)O)[C@@H](C)O)[C@@H](C)CC)[C@@H](C)O)[C@@H](C)CC)C(=O)N[C@@H](CCC(=O)O)C(=O)NCC(=O)NCC(=O)N1CCC[C@H]1C(=O)N[C@@H](CO)C(=O)N[C@@H](CO)C(=O)NCC(=O)N[C@@H](C)C(=O)N1CCC[C@H]1C(=O)N1CCC[C@H]1C(=O)N1CCC[C@H]1C(=O)N[C@@H](CO)C(N)=O` [Example 160] (H-Y[Aib]EGT[αMePhe(2-F)]TSD[Aib]SI[αMeL]LDEK([AEEA-AEEA-γGlu-C20 diacid])AQ[Aib]TFI[dE]YLIEGGPSSGAPPPS-NH2), the values for the Ki on human Gcg receptor, at human GIP receptor and on human GLP-1R were more than 1060 nM, 5.98 nM and 14.4 nM, respectively. The EC50 in assay [1] came to 0.0461 nM; in assay [2], 21 nM.
